Laboratory results taken from US20240083857A1, “2-Methyl-Quinazolines” (Bayer Pharma Aktiengesellschaft, priority 2017, published 2024).
Read-outs that look alike come from different tables or passages of the source.

Tests used:
[1] = target: Epidermal Growth Factor Receptor (EGFR) (Homo sapiens (Human), UniProt P00533); assay: EGFR kinase assay (TR-FRET); format: biochemical
Excerpt: EGFR inhibitory activity of compounds of the present invention was quantified employing the TR-FRET based EGFR assay as described in the following paragraphs.
Epidermal Growth Factor Receptor (EGFR) affinity purified from human carcinoma A431 cells (Sigma-Aldrich, #E3641) was used as kinase. As substrate for the kinase reaction the biotinylated peptide biotin-Ahx-[…] (SEQ ID NO 5) (C-terminus in amid form) was used which can be purchased e.g. form the company Biosyntan GmbH (Berlin-Buch, Germany).
For the assay 50 nL of a 100 fold concentrated solution of the test compound in DMSO was pipetted into a black low volume 384 well microtiter plate (Greiner Bio-One, Frickenhausen, Germany), 2 μL of a solution of EGFR in aqueous assay buffer [50 mM Hepes/HCl pH 7.0, 1 mM MgCl2, 5 mM MnCl2, 0.5 mM activated sodium ortho-vanadate, 0.005% (v/v) Tween-20]were added and the mixture was incubated for 15 min at 22° C. to allow pre-binding of the test compounds to the enzyme before the start of the kinase reaction. […] The concentration of EGFR was adjusted depending of the activity of the enzyme lot and was chosen appropriate to have the assay in the linear range, typical concentration were about 3 U/ml. The reaction was stopped by the addition of 5 μl of a solution of HTRF detection reagents (0.1 μM streptavidine-XL665 [Cis Biointernational] and 1 nM PT66-Tb-Cryptate, an terbium-cryptate labelled anti-phospho-tyrosine antibody from Cis Biointernational [instead of the PT66-Tb-cryptate PT66-Eu-Chelate from Perkin Elmer can also be used]) in an aqueous EDTA-solution (80 mM EDTA, 0.2% (w/v) bovine serum albumin in 50 mM HEPES pH 7.5).
The resulting mixture was incubated 1 h at 22° C. to allow the binding of the biotinylated phosphorylated peptide to the streptavidine-XL665 and the PT66-Eu-Chelate. Subsequently the amount of phosphorylated substrate was evaluated by measurement of the resonance energy transfer from the PT66-Tb-Cryptate to the streptavidine-XL665. Therefore, the fluorescence emissions at 620 nm and 665 nm after excitation at 337 nm were measured in a HTRF reader, e.g. a Pherastar (BMG Labtechnologies, Offenburg, Germany) or a Viewlux (Perkin-Elmer). The ratio of the emissions at 665 nm and at […] was taken as the measure for the amount of phosphorylated substrate.

[2] = target: human SOS1 (nucleotide exchange of K-Ras^G12C) (Homo sapiens, UniProt Q07889); assay: Biochemical assay 2: K-Ras^G12C activation assay by hSOS1 at high GTP concentration (HTRF)
[3] = target: human SOS1 (loading of human K-Ras^G12C-GDP with fluorescent GTP-analog) (Homo sapiens, UniProt Q07889); assay: Biochemical assay 3: K-Ras^G12C activation assay by hSOS1 (HTRF); settings: for inhibition at 20 µM: read-out: Assay 3 (KRAS-Activation by SOS no GTP) activity expressed as % inhibition at 20 μM
[4] = target: K-Ras^G12C : hSOS1 interaction (Homo sapiens, UniProt Q07889); assay: Biochemical assay 1: K-Ras^G12C interaction assay with hSOS1 (HTRF); format: binding
[5] = E-notation values, unit inferred, 50 μM GTP, read-out: Assay 2 (KRAS-Activation, high GTP) IC50
[6] = E-notation values, unit inferred, read-out: EGFR-assay IC50
[7] = E-notation values, unit inferred, read-out: Assay 3 (KRAS-Activation) IC50
[8] = in μM, read-out: EGFR-assay IC50
[9] = high GTP, read-out: Assay 2 (KRAS-Activation by SOS high GTP) activity expressed as IC50
[10] = values given in μM, read-out: EGFR kinase inhibition IC50
[11] = no GTP, read-out: Assay 3 (KRAS-Activation by SOS no GTP) activity expressed as IC50
[12] = read-out: Assay 1 (KRAS-SOS Interaction) activity expressed as IC50

Epidermal Growth Factor Receptor (EGFR), sequence (P00533 25-1210): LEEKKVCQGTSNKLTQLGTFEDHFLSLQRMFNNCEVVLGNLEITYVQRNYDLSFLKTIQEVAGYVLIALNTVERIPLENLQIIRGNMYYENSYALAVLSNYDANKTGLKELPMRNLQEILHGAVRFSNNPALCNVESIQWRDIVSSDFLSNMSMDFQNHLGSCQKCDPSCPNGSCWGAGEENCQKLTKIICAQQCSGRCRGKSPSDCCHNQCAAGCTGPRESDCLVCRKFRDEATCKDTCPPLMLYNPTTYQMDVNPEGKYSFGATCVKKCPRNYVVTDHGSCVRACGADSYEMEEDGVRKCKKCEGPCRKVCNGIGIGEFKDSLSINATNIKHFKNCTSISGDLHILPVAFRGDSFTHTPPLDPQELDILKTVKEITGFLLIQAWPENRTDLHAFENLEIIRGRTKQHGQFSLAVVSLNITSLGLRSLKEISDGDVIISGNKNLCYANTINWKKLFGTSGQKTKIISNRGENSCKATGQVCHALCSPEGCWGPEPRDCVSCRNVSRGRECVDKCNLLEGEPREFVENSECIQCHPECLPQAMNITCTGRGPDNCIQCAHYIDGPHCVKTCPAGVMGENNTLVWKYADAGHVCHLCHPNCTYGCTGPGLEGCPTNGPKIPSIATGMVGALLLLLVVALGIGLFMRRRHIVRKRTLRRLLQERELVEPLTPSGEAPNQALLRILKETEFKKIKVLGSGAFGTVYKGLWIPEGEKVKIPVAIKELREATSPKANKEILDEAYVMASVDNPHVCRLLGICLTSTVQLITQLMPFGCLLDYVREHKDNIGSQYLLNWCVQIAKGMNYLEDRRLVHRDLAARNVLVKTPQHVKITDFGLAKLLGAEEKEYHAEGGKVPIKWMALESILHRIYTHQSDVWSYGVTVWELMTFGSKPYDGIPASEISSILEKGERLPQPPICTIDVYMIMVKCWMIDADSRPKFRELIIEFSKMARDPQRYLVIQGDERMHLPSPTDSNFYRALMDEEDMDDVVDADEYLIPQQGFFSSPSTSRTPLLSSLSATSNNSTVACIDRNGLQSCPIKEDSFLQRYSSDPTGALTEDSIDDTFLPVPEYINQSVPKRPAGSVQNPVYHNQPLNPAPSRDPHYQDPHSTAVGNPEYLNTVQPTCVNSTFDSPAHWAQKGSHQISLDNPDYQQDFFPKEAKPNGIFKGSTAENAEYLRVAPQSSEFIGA

Compound | IC50 [2, 9] [µM] | IC50 [3, 11] [µM] | IC50 [4, 12] [µM] | also measured
COc1cc2ncnc(N[C@H](C)c3cccc4ccccc34)c2cc1OC [Reference compound, 6,7-dimethoxy-N-[(1R)-1-(1-naphthyl)ethyl]quinazolin-4-amine, reference compound] |  |  |  | IC50 ([1]; unit inferred, read-out: EGFR kinase inhibition IC50): 0.553 µM
COc1cc2nc(C)nc(NC(C)c3ccc(-c4ccc(Cl)cc4CNC(=O)OC(C)(C)C)s3)c2cc1OC (centres unmarked) [Example 449, tert-butyl [5-chloro-2-(5-{1-[(6,7-dimethoxy-2-methylquinazolin-4-yl)amino]ethyl}thiophen-2-yl)benzyl]carbamate] |  |  |  | IC50 [2, 5]: > 20 µM; IC50 [1, 6]: > 20 µM; IC50 [3, 7]: > 20 µM
COc1cc2nc(C)nc(NC(C)c3ccc(-c4ccccc4C(O)CCc4ccccc4)s3)c2cc1OC (centres unmarked) [Example 375, 1-[2-(5-{1-[(6,7-dimethoxy-2-methylquinazolin-4-yl)amino]ethyl}thiophen-2-yl)phenyl]-3-phenylpropan-1-ol] |  |  |  | IC50 [1, 8]: > 20 µM
COc1cc2nc(C)nc(N[C@H](C)c3cccc(-c4c[nH]cn4)c3)c2cc1OC [Example 342, N-{(1R)-1-[3-(1H-imidazol-4-yl)phenyl]ethyl}-6,7-dimethoxy-2-methylquinazolin-4-amine] | 0.993 | 1.13 |  | IC50 [1, 10]: > 20 µM
Cc1nc(N[C@H](C)c2cccc(Cl)c2)c2ccc(Br)cc2n1 [Example 451, 7-bromo-N-[(1R)-1-(3-chlorophenyl)ethyl]-2-methylquinazolin-4-amine] |  |  |  | IC50 [2, 5]: > 20 µM; IC50 [1, 6]: > 20 µM; IC50 [3, 7]: > 20 µM
Cc1nc(N[C@H](C)c2cccc(Cl)c2)c2cc(C(=O)O)ccc2n1 [Example 372, 4-{[(1R)-1-(3-chlorophenyl)ethyl]amino}-2-methylquinazoline-6-carboxylic acid] |  |  |  | IC50 [1, 8]: > 20 µM
COc1cc2nc(C)nc(NC(C)c3ccc(-c4ccccc4-c4nnn[nH]4)s3)c2cc1OC (centres unmarked) [Example 368, 6,7-dimethoxy-2-methyl-N-[1-{5-[2-(1H-tetrazol-5-yl)phenyl]thiophen-2-yl}ethyl]-quinazolin-4-amine] |  |  |  | IC50 [1, 8]: > 20 µM
COc1cc2nc(C)nc(N[C@H](C)c3cccc4ccccc34)c2cc1OC [Example 1, 6,7-dimethoxy-2-methyl-N-[(1R)-1-(naphthalen-1-yl)ethyl]quinazolin-4-amine] |  |  |  | IC50 [1, 10]: > 20 µM
CNCc1ccccc1-c1csc(C(C)Nc2nc(C)nc3cc(OC)c(OC)cc23)c1 (single isomer, unassigned; enantiomer 1) [Example 326, 6,7-dimethoxy-2-methyl-N-[1-(4-{2-[(methylamino)methyl]phenyl}thiophen-2-yl)ethyl]quinazolin-4-amine, Enantiomer 1] |  |  |  | IC50 [1, 10]: > 20 µM
CNCc1ccccc1-c1csc(C(C)Nc2nc(C)nc3cc(OC)c(OC)cc23)c1 (centres unmarked) [Example 271, 6,7-dimethoxy-2-methyl-N-[1-(4-{2-[(methylamino)methyl]phenyl}thiophen-2-yl)ethyl]quinazolin-4-amine] |  |  |  | IC50 [1, 10]: > 20 µM
CNCc1ccccc1-c1csc(C(C)Nc2nc(C)nc3cc(OC)c(OC)cc23)c1 (single isomer, unassigned; enantiomer 2) [Example 327, 6,7-dimethoxy-2-methyl-N-[1-(4-{2-[(methylamino)methyl]phenyl}thiophen-2-yl)ethyl]quinazolin-4-amine, Enantiomer 2] |  |  |  | IC50 [1, 10]: > 20 µM
COc1cc2nc(C)nc(NC(C)c3ccc(-c4ccc(Br)cc4CN(C)C)s3)c2cc1OC (centres unmarked) [Example 384, N-(1-(5-(4-bromo-2-((dimethylamino)methyl)phenyl)thiophen-2-yl)ethyl)-6,7-dimethoxy-2-methylquinazolin-4-amine] |  |  |  | IC50 [2, 5]: 0.0665 µM; IC50 ([4]; E-notation values, unit inferred, read-out: Assay 1 (KRAS-SOS interaction) IC50): 0.123 µM; IC50 [3, 7]: 0.0846 µM
COc1cc(F)cc(-c2ccc([C@H](C)Nc3nc(C)nc4cc(OC)c(OC)cc34)s2)c1 (stereo in doubt) [Example 134, N-{1-[5-(3-fluoro-5-methoxyphenyl)thiophen-2-yl]ethyl}-6,7-dimethoxy-2-methylquinazolin-4-amine] |  |  |  | inhibition at 20 µM ([2]; read-out: Assay 2 (KRAS-Activation by SOS high GTP) activity expressed as % inhibition at 20 μM, high GTP, at 20 μM): 23%; inhibition at 20 µM ([4]; read-out: Assay 1 (KRAS-SOS Interaction) activity expressed as % inhibition at 20 μM): 43%; inhibition at 20 µM ([3]; no GTP): 27%
CCOCc1ccccc1-c1cccc([C@@H](C)Nc2nc(C)nc3cc(OC)c(OC)cc23)c1 [Example 64, N-{(1R)-1-[2′-(ethoxymethyl)biphenyl-3-yl]ethyl}-6,7-dimethoxy-2-methylquinazolin-4-amine] | 1.96 | 2.21 | 1.4 | 
COc1cc2nc(C)nc(NC(C)c3cccs3)c2cc1OC (centres unmarked) [Example 347, 6,7-dimethoxy-2-methyl-N-[1-(thiophen-2-yl)ethyl]quinazolin-4-amine] | 9.05 |  | 15.6 | inhibition at 20 µM ([3]; no GTP): 48%
COc1cc2nc(C)nc(N[C@@H](C)c3ccc(-c4ccc5c(c4)CCO5)s3)c2cc1OC (racemic) [Example 174, N-{1-[5-(2,3-dihydro-1-benzofuran-5-yl)thiophen-2-yl]ethyl}-6,7-dimethoxy-2-methylquinazolin-4-amine] | 9.28 | 18.3 | 6.92 | 
COc1cc2nc(C)nc(NC(C)c3cc(Br)cc4c3OCC4)c2cc1OC (centres unmarked) [Example 225, N-[1-(5-bromo-2,3-dihydro-1-benzofuran-7-yl)ethyl]-6,7-dimethoxy-2-methylquinazolin-4-amine] | 2.27 | 4.68 | 1.54 | 
COc1cc2nc(C)nc(N[C@H](C)c3cccc(-c4ccn[nH]4)c3)c2cc1OC [Example 75, 6,7-dimethoxy-2-methyl-N-{(1R)-1-[3-(1H-pyrazol-3-yl)phenyl]ethyl}quinazolin-4-amine] | 1.15 | 1.01 | 0.588 | 
COc1cc2nc(C)nc(N[C@H](C)c3cccc(-c4ccc5c(c4)CCO5)c3)c2cc1OC [Example 113, N-{(1R)-1-[3-(2,3-dihydro-1-benzofuran-5-yl)phenyl]ethyl}-6,7-dimethoxy-2-methylquinazolin-4-amine] | 0.839 | 2.1 | 1.35 | 
COc1cc2nc(C)nc(N[C@H](C)c3cccc(-c4ccc(C(=O)N(C)C)cc4)c3)c2cc1OC [Example 115, 3′-{(1R)-1-[(6,7-dimethoxy-2-methylquinazolin-4-yl)amino]ethyl}-N,N-dimethylbiphenyl-4-carboxamide] | 0.802 | 1.57 | 0.865 | 
COc1cc2nc(C)nc(N[C@H](C)c3cccc(-c4cnc5[nH]ccc5c4)c3)c2cc1OC [Example 60, 6,7-dimethoxy-2-methyl-N-{(1R)-1-[3-(1H-pyrrolo[2,3-b]pyridin-5-yl)phenyl]ethyl}quinazolin-4-amine] | 0.448 | 1.04 | 0.585 | 
COc1cc2nc(C)nc(N[C@H](C)c3cccc(-c4cc(Cl)cc(Cl)c4)c3)c2cc1OC [Example 124, N-[{1R)-1-(3′,5′-dichlorobiphenyl-3-yl)ethyl]-6,7-dimethoxy-2-methylquinazolin-4-amine] | 9.3 |  | 18.3 | inhibition at 20 µM ([3]; no GTP): 37%
COc1cc2nc(C)nc(N[C@H](C)c3cccc(C4CC4(C)C)c3)c2cc1OC (stereo partly drawn) [Example 58, N-{(1R)-1-[3-(2,2-dimethylcyclopropyl)phenyl]ethyl}-6,7-dimethoxy-2-methylquinazolin-4-amine] | 1.64 | 3.11 | 1.77 | 
COc1cc2nc(C)nc(N[C@H](C)c3ccc(C#N)cc3)c2cc1OC [Example 189, 4-{(1R)-1-[(6,7-dimethoxy-2-methylquinazolin-4-yl)amino]ethyl}benzonitrile] | 1.17 | 2.76 | 0.998 | 
